Molecules are shown by their SMILES.

This is an account of results in patent publication US6436441B1, “Hydrogel-forming sustained-release preparation” (Yamanouchi Pharmaceutical Co., Ltd., priority 1992, dated 2002).

For this data set the following is noted: JP method, 25 ± 5° C.; the additive itself.

Consider `O=C(CO)[C@@H](O)[C@H](O)[C@H](O)CO` [D-Fructose], for which the “Solubility (volume of water required for dissolving 1 gram)” value is 1 mL.
